Reference: patent publication US6803374B2, “Compounds useful for treating hepatitis C virus” (priority 2001, dated 2004)

Target: T1, HCV NS5B RdRp genotype 1b (Hepatitis C virus genotype 1b, UniProt Q9WMX2)
T1 construct: The protein was expressed with an 18 amino acid C-terminal truncation to enhance the solubility; made in house; host or cells: E. coli BL21(DE3)
Assay: HCV NS5B RdRp enzyme assay
Type: biochemical
Details: IC50, HCV RdRp genotype 1b enzyme, C-terminal 18 aa truncated; average of single point IC50 values
Experimental: HCV NS5B RdRp cloning, expression and purification. The cDNA encoding the NS5B protein of HCV, genotype 1b, was cloned into the pET21a expression vector. The protein was expressed with an 18 amino acid C-terminal truncation to enhance the solubility. The E. coli competent cell line BL21(DE3) was used for expression of the protein. Cultures were grown at 37° C. for ˜4 hours until the cultures reached an optical density of 2.0 at 600 nm. The cultures were cooled to 20° C. and induced with 1 mM IPTG. Fresh ampicillin was added to a final concentration of 50 ug/ml and the cells were grown overnight at 20° C.
Cell pellets (3L) were lysed for purification to yield 15-24 mgs of purified NS5B. The lysis buffer consisted of 20 mM Tris-HCl, pH 7.4, 500 mM NaCl, 0.5% triton X-100, 1 mM DTT, 1 mM EDTA, 20% glycerol, 0.5 mg/ml lysozyme, 10 mM MgCl2, 15 ug/ml deoxyribonuclease I, and Complete TM protease inhibitor tablets (Roche). After addition of the lysis buffer, frozen cell pellets were resuspended using a tissue homogenizer. To reduce the viscosity of the sample, aliquots of the lysate were sonicated on ice using a microtip attached to a Branson sonicator. The sonicated lysate was centrifuged at 100,000×g for 1 hr at 4° C. and filtered through a 0.2 μm filter unit (Corning).
The protein was purified using three sequential chromatography steps: Heparin sepharose CL-6B, polyU sepharose 4B, and Hitrap SP sepharose (Pharmacia). The chromatography buffers were identical to the lysis buffer but contained no lysozyme, deoxyribonuclease I, MgCl2 or protease inhibitor and the NaCl concentration of the buffer was adjusted according to the requirements for charging the protein onto the column. Each column was eluted with a NaCl gradient which varied in length from 5-50 column volumes depending on the column type. After the final chromatography step, the resulting purity of the enzyme is >90% based on SDS-PAGE analysis. The enzyme was aliquoted and stored at −80° C.
HCV NS5B RdRp enzyme assay. HCV RdRp genotype 1b assays were run in assay buffer composed of 20 mM Tris-HCl, pH 7.5, 2.5 mM KCl, 5 mM MgCl2, 1 mM DTT, 1.6 U RNAse inhibitor (Promega N2515), in 96 well plates (Falcon 3918). All compounds were serially diluted in DMSO and diluted further in assay buffer such that the final concentration of DMSO in the assay was 2%. Compounds were serially diluted (3-fold each time) for a 7 point inhibition analysis. HCV RdRp genotype 1b enzyme was used at a final concentration of 28 nM. A polyA template was used at 28 nM, and the oligo-dT12-18 primer was used at 840 nM final concentration. Preannealed primer and template were obtained commercially (Amersham 27-787802). ^3H-UTP was used at 0.125 μCi (1 μM total UTP). Reaction was initiated by the addition of enzyme. Reactions were incubated at 30° C. for 45 min, and stopped by adding 30 ul of 20% ice cold TCA. Plates were chilled for 30 minutes and harvested onto Unifilter-96, GF/B plates (Packard, 6005177) using a Packard FilterMate Cell Harvester. The harvest plates were prewashed 3 times, 200 ul/well, with 100 mM NaPPi. Harvested filters were washed 30 times, 200 ul/well, with distilled water followed by ethanol. Filter plates were dried, and 30 ul/well microscint-20 was added. Plates were read on a Packard Top Count NXT.
The IC50 values for compounds were determined using […] different [I], combined with 7 nM enzyme, 800 ng of the template-primer polyC/oligoG12 (1:5 molar ratio), and 0.7 uM of ^3H GTP containing 1 uCi. The observed fractional activity (fa=vi/vo) was used in the equation IC50=[I]/(1/fa-1) to determine a single point IC50 value. Typically, the single point IC50 values derived from [I] that produced fractional activities in the range of 0.1 to 0.8 relative to the uninhibited control were averaged to calculate the IC50 value for each compound.

T1 sequence (Q9WMX2 2420-2992): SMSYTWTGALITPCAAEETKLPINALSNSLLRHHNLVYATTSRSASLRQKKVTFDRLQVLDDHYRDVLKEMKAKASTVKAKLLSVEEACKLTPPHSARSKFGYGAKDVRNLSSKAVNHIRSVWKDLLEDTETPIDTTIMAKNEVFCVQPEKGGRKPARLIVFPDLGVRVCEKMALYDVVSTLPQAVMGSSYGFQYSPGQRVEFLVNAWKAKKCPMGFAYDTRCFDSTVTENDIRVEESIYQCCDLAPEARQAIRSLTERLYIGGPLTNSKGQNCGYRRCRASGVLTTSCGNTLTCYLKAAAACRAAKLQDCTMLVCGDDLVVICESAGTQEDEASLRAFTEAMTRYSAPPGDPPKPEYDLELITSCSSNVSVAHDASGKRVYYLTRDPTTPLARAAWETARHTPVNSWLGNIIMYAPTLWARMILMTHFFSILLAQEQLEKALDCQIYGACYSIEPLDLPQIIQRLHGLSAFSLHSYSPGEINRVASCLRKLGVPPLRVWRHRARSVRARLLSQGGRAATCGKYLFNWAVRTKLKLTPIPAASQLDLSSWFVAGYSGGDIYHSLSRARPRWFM

Going from `c1ccc(C(Oc2ccc(-c3nc4cc(-c5nnn[nH]5)ccc4n3C3CCCCC3)cc2)c2ccccc2)cc1` [Example 1, 2-[4-(Diphenylmethoxy)phenyl]-1-cyclohexyl-5-(1H-tetrazol-5-yl)-1H-benzimidazole] to `O=C(O)c1ccc(-c2ccccc2)c(COc2ccc(-c3nc4cc(-c5nnn[nH]5)ccc4n3C3CCCCC3)cc2)c1` [Example 35], the IC50 falls from 0.63 µM to 0.07 µM (9-fold).

Compared with `COc1ccc(-c2ccc(Cl)cc2)c(COc2ccc(-c3nc4cc(-c5nnn[nH]5)ccc4n3C3CCCCC3)cc2)c1` [Example 3, 2-{4-[(4′-Chloro-4-methoxy-1,1′-biphenyl-2-yl)methoxy]phenyl}-1-cyclohexyl-5-(1H-tetrazol-5-yl)-1H-benzimidazole], `O=C(O)c1ccc(-c2ccc(Cl)cc2)c(COc2ccc(-c3nc4cc(-c5nnn[nH]5)ccc4n3C3CCCCC3)cc2)c1` [Example 23] is 7-fold lower in IC50: 0.14 µM for the first, 0.02 µM for the second.

Going from `O=C(O)c1ccc(-c2cncnc2)c(COc2ccc(-c3nc4cc(-c5nnn[nH]5)ccc4n3C3CCCCC3)cc2)c1` [Example 4, 3-[[4-[1-Cyclohexyl-5-(1H-tetrazol-5-yl)-1H-benzimidazol-2-yl]phenoxy]methyl]-4-(5-pyrimidinyl)benzoic acid] to `O=C(O)c1ccc(-c2ccc(F)cc2)c(COc2ccc(-c3nc4cc(-c5nnn[nH]5)ccc4n3C3CCCCC3)cc2)c1` [Example 24], the IC50 falls from 0.63 µM to 0.05 µM (13-fold).

Going from `COc1ccccc1-c1nc(COc2ccc(-c3nc4cc(-c5nnn[nH]5)ccc4n3C3CCCCC3)cc2)no1` [Example 5, 1-Cyclohexyl-2-[4-[5-(2-methoxyphenyl)-1,2,4-oxadiazol-3-ylmethoxy]phenyl]-5-[1H-tetrazol-5-yl]-1H-benzimidazole] to `COc1ccc(-c2ccc(C(=O)O)cc2COc2ccc(-c3nc4cc(-c5nnn[nH]5)ccc4n3C3CCCCC3)cc2)cc1` [Example 25], the IC50 falls from 0.36 µM to 0.04 µM (9-fold).

Going from `O=c1[nH]c(-c2ccc3c(c2)nc(-c2ccc(OCc4ccccc4)cc2)n3C2CCCCC2)no1` [Example 10, 3-{2-[4-(Benzyloxy)phenyl]-1-cyclohexyl-1H-benzimidazol-5-yl}-1,2,4-oxadiazol-5(4H)-one] to `O=C(O)C(=O)NS(=O)(=O)c1ccc2c(c1)nc(-c1ccc(OCc3ccccc3)cc1)n2C1CCCCC1` [Example 22, [2-(4-Benzyloxy-phenyl)-1-cyclohexyl-1H-benzoimidazole-5-sulfonylamino]-3-oxo-acetic acid], the IC50 rises from 0.85 µM to 8.09 µM (9.5-fold). The first is the more potent here.

First: COC(=O)c1ccc(C(=O)NS(=O)(=O)c2ccc3c(c2)nc(-c2ccc(OCc4ccccc4)cc2)n3C2CCCCC2)cc1 [Example 17, 4-[2-(4-Benzyloxyphenyl)-1-cyclohexyl-1H-benzoimidazole-5-sulfonylaminocarbonyl]-benzoic acid methyl ester]
Second: O=C(O)c1ccc(C(=O)NS(=O)(=O)c2ccc3c(c2)nc(-c2ccc(OCc4ccccc4)cc2)n3C2CCCCC2)cc1 [Example 18, 4-[2-(4-Benzyloxyphenyl)-1-cyclohexyl-1H-benzimidazole-5-sulfonylaminocarbonyl]-benzoic acid]
The IC50 of the first is 3.4-fold higher: 5.21 µM for the first, 1.52 µM for the second.

Compared with `O=C(O)CC(=O)NS(=O)(=O)c1ccc2c(c1)nc(-c1ccc(OCc3ccccc3)cc1)n2C1CCCCC1` [Example 20, 3-[2-(4-Benzyloxy-phenyl)-1-cyclohexyl-1H-benzoimidazole-5-sulfonylamino]-3-oxo-propionic acid], `O=Cc1ccccc1-c1ccc(C(=O)O)cc1COc1ccc(-c2nc3cc(-c4nnn[nH]4)ccc3n2C2CCCCC2)cc1` [Example 36] is 9.9-fold lower in IC50: 8.2 µM for the first, 0.83 µM for the second. The second is the more potent here.

First: CSc1ccc(-c2ccc(C(=O)O)cc2COc2ccc(-c3nc4cc(-c5nnn[nH]5)ccc4n3C3CCCCC3)cc2)cc1 [Example 26]
Second: O=C(O)c1ccc(-c2ccc(O)cc2)c(COc2ccc(-c3nc4cc(-c5nnn[nH]5)ccc4n3C3CCCCC3)cc2)c1 [Example 46]
The IC50 of the first is 3.2-fold higher: 0.19 µM for the first, 0.06 µM for the second. The second is the more potent here.

Going from `O=C(O)c1ccc(-c2cc(Cl)cc(Cl)c2)c(COc2ccc(-c3nc4cc(-c5nnn[nH]5)ccc4n3C3CCCCC3)cc2)c1` [Example 27] to `O=C(O)c1ccc(-c2ccc(F)c(Cl)c2)c(COc2ccc(-c3nc4cc(-c5nnn[nH]5)ccc4n3C3CCCCC3)cc2)c1` [Example 30], the IC50 falls from 1.01 µM to 0.04 µM (25-fold).

Compared with `O=C(O)c1ccc(-c2cccc3ccccc23)c(COc2ccc(-c3nc4cc(-c5nnn[nH]5)ccc4n3C3CCCCC3)cc2)c1` [Example 28], `O=C(O)c1ccc(-c2ccccc2-c2ccccc2)c(COc2ccc(-c3nc4cc(-c5nnn[nH]5)ccc4n3C3CCCCC3)cc2)c1` [Example 29] is 2.5-fold lower in IC50: 0.62 µM for the first, 0.25 µM for the second. The second is the more potent here.

Going from `O=C(O)c1ccc(-c2ccc(C(F)(F)F)cc2)c(COc2ccc(-c3nc4cc(-c5nnn[nH]5)ccc4n3C3CCCCC3)cc2)c1` [Example 31] to `N#Cc1ccc(-c2ccc(C(=O)O)cc2COc2ccc(-c3nc4cc(-c5nnn[nH]5)ccc4n3C3CCCCC3)cc2)cc1` [Example 34], the IC50 falls from 0.06 µM to 0.04 µM (1.5-fold).

`CC(=O)Nc1cccc(-c2ccc(C(=O)O)cc2COc2ccc(-c3nc4cc(-c5nnn[nH]5)ccc4n3C3CCCCC3)cc2)c1` [Example 32] and `O=C(O)c1ccc(-c2cccc(O)c2)c(COc2ccc(-c3nc4cc(-c5nnn[nH]5)ccc4n3C3CCCCC3)cc2)c1` [Example 33] are the same in IC50: 0.04 µM for the first, 0.04 µM for the second.

`O=Cc1ccc(-c2ccc(C(=O)O)cc2COc2ccc(-c3nc4cc(-c5nnn[nH]5)ccc4n3C3CCCCC3)cc2)cc1` [Example 37] and `O=C(O)C=Cc1ccc(-c2ccc(C(=O)O)cc2COc2ccc(-c3nc4cc(-c5nnn[nH]5)ccc4n3C3CCCCC3)cc2)cc1` [Example 47] are within 1.5-fold of each other in IC50: 0.07 µM for the first, 0.05 µM for the second.

Going from `O=C(O)c1ccc(-c2ccc([N+](=O)[O-])cc2)c(COc2ccc(-c3nc4cc(-c5nnn[nH]5)ccc4n3C3CCCCC3)cc2)c1` [Example 41] to `CC(=O)c1ccc(-c2ccc(C(=O)O)cc2COc2ccc(-c3nc4cc(-c5nnn[nH]5)ccc4n3C3CCCCC3)cc2)cc1` [Example 45], the IC50 rises from 0.05 µM to 0.08 µM (1.6-fold). The first is the more potent here.

First: O=C(O)c1ccc(-c2ccc(CO)cc2)c(COc2ccc(-c3nc4cc(-c5nnn[nH]5)ccc4n3C3CCCCC3)cc2)c1 [Example 42]
Second: Cc1ccc(-c2ccc(C(=O)O)cc2COc2ccc(-c3nc4cc(-c5nnn[nH]5)ccc4n3C3CCCCC3)cc2)cc1N [Example 43]
The IC50 of the first is 4.8-fold lower: 0.05 µM for the first, 0.24 µM for the second.

First: COc1ccc(-c2ccc(C(=O)O)cc2COc2ccc(-c3nc4cc(-c5nnn[nH]5)ccc4n3C3CCCCC3)cc2)cc1OC [Example 44]
Second: CNC(=O)c1ccc(-c2ccc(Cl)cc2)c(COc2ccc(-c3nc4cc(-c5nnn[nH]5)ccc4n3C3CCCCC3)cc2)c1 [Example 50]
The IC50 of the first is 2.9-fold lower: 0.08 µM for the first, 0.23 µM for the second. The first is the more potent here.

Going from `O=C(c1ccc(-c2ccc(Cl)cc2)c(COc2ccc(-c3nc4cc(-c5nnn[nH]5)ccc4n3C3CCCCC3)cc2)c1)N1CCC(O)CC1` [Example 48] to `CNC(=O)c1ccc(-c2ccc(C#N)cc2)c(COc2ccc(-c3nc4cc(-c5nnn[nH]5)ccc4n3C3CCCCC3)cc2)c1` [Example 49], the IC50 falls from 0.32 µM to 0.08 µM (4-fold).

Compared with `CC(C)(C)OC(=O)C(Cc1ccc(OC(C)(C)C)cc1)NC(=O)c1cccc(COc2ccc(-c3nc4cc(-c5nnn[nH]5)ccc4n3C3CCCCC3)cc2)c1` (stereo not shown) [Example 51], `O=C(NC(Cc1ccc(O)cc1)C(=O)O)c1ccc(-c2cccc(O)c2)c(COc2ccc(-c3nc4cc(-c5nnn[nH]5)ccc4n3C3CCCCC3)cc2)c1` (stereo not shown) [Example 53] is 1.6-fold lower in IC50: 0.93 µM for the first, 0.57 µM for the second. The second is the more potent here.

In the case of `CC(NC(=O)c1ccc(-c2cccc(O)c2)c(COc2ccc(-c3nc4cc(-c5nnn[nH]5)ccc4n3C3CCCCC3)cc2)c1)C(=O)O` (stereo not shown) [Example 52], the IC50 is reported as 0.47 µM.
